The values below come from publication PMC11758221, “Late-Stage Minimal Labeling of Peptides and Proteins for Real-Time Imaging of Cellular Trafficking” (ACS Central Science, 2024).

Like-named read-outs stand apart in the source and are kept apart here. Where a SMILES comes first, the peptide text is derived from it. Where no end group is shown, it is not given here. The star is where a group is joined. X1 = O=[N+]([O-])c1ccc(*)c2nsnc12

The term EC50 denotes the midpoint of the concentration-response curve.

Data set [1] deals with Human red blood cells. Nature of the data set: Haemolysis assay. The data set is classed as cell-based. As for the experimental part:
H aemolysis assays. […] H u man red bl ood cel l s w ere separated f rom seru m an d w ash ed i n ph osph ate- bu ff ered sal i n e (P B S , pH 7.4) with 4–5 ti mes cen tri f u gati on at 4000 rpm f o r 1 mi n . E ryth rocytes w ere th en resu spended in PBS as a 0.5% (v/v) sol u ti on , an d co- i n cu bated w i th seri al l y di l u ted pepti des i n a 96-w el l pl ate f o r 1 h at 37 °C . […] PBS and […]
0 .0 1 % (v /v ) Tri to n X-100 w ere u sed as con trol s to establ i sh 0% an d 100% of h aemol ysis, respecti vel y. […]

The nature of data set [2]: Stability of labeled peptide with reducing bioanalytes (HPLC). It is filed as physicochemical. The note with it: peptide 250 µM in PBS pH 7.8, 37 °C. As for the experimental part:
5 mM gl u tath i on e >95% >95% >95%
Figure S8. Stability analysis of P1-SNBD under physiological conditions. […]

A short description of data set [3]: Chemical stability in PBS, cell culture media and reducing environments. It is filed as physicochemical. Here is the method: Next, we investigated the optical properties and stability of the S-aryl linkage in the two labeled peptides P1-SNBD and cP1-SNBD. We examined their chemical stability after incubation in phosphate buffered saline (PBS, pH 7.0) at 25 °C and cell culture media at 37 °C (Figures S6 and S7) as well as different biologically relevant reducing environments (Figure S8). […] Finally, we measured the emission spectra of P1-SNBD and cP1-SNBD and confirmed that the two peptides retained the fluorogenic behavior of benzodiazoles (Figure S9).

For data set [4], the system named is RAW264.7 macrophages expressing the chemokine receptor CCR2. Nature of the data set: Confocal imaging of receptor-mediated endocytosis of the labeled chemokine. It is filed as cell-based, mouse. To be noted: RAW264.7 cells, 4 μM, 1 h. An excerpt:
Figure 6 Site-selective mCCL2 chemokine labeling and real-time imaging of receptor-mediated endocytosis in live macrophages. A) Schematic representation of the chemokine mCCL2 (PDB: 1DOK) depicting the incorporation of SNBD at the C-terminal end. B) Coomassie-stained and in-gel fluorescence scanning of unlabeled mCCL2, mCCL2-SNBD, and the Pd-SNBD complex. C) Mass spectrometry analysis of unlabeled mCCL2 and mCCL2-SNBD proteins. D) Representative fluorescence confocal microscopy images of RAW264.7 cells after incubation with mCCL2-SNBD for 1 h. Left panel: untreated cells; middle panel: cells treated with mCCL2-SNBD (4 μM); right panel: cells treated with mCCL2-SNBD (4 μM) and the CCR2 antagonist RS102895 (40 μM) (exc/em: 405/515 nm). Insets show the corresponding brightfield images. Scale bars: 25 μm. […]
Next, we acquired fluorescence microscopy images in live RAW264.7 macrophages as a murine macrophage cell line expressing the chemokine receptor CCR2.[64] We incubated the macrophages with mCCL2-SNBD, and fluorescence images were taken after 1 hour without any washing steps. […]
[…] Th e si gn al s w ere recorded as mi l l i degrees at 25 °C , an d th e mean resi du e el l i pti ci ty (MR E ) w as cal cu l ated accordi n g to [θ] […]

The mark [5] stands for this setting: human red blood cells 0.5% (v/v) in PBS pH 7.4, 1 h at 37 °C, haemoglobin absorbance 405 nm, 0.01% Triton X-100 = 100%, Hill fit with maximum constrained to 100%, read-out: hemolytic activity EC50.
Setting [6] is: red cells of human, 1 h, pH 7.4.

As for `N=C(N)NCCC[C@H](NC(=O)CNC(=O)[C@@H](N)Cc1ccc(O)cc1)C(=O)N[C@@H](CCCCN)C(=O)N[C@@H](CCCCN)C(=O)N[C@@H](CCCNC(=N)N)C(=O)N[C@@H](CCCNC(=N)N)C(=O)N[C@@H](CCC(N)=O)C(=O)N[C@@H](CCCNC(=N)N)C(=O)N[C@@H](CCCNC(=N)N)C(=O)N[C@@H](CCCNC(=N)N)C(=O)N1CCC[C@H]1C(=O)N[C@@H](CCC(N)=O)C(=O)N[C@@H](CSc1ccc([N+](=O)[O-])c2nsnc12)C(N)=O` [TAT-SNBD], the EC50 in data set [1] (setting [5]) was determined as 53 ± 2 µM.
As to “GLRKRLRKFRNKIKEK-NH2 [sC18, reference compound]”, the EC50 in data set [1] (setting [5]) worked out at 70 ± 4 µM.
For the compound `CC[C@H](C)[C@H](NC(=O)[C@H](CCCCN)NC(=O)[C@H](CC(N)=O)NC(=O)[C@H](CCCNC(=N)N)NC(=O)[C@H](Cc1ccccc1)NC(=O)[C@H](CCCCN)NC(=O)[C@H](CCCNC(=N)N)NC(=O)[C@H](CC(C)C)NC(=O)[C@H](CCCNC(=N)N)NC(=O)[C@H](CCCCN)NC(=O)[C@H](CCCNC(=N)N)NC(=O)[C@H](CC(C)C)NC(=O)CN)C(=O)N[C@@H](CCCCN)C(=O)N[C@@H](CCC(=O)O)C(=O)N[C@@H](CCCCN)C(=O)N[C@@H](CSc1ccc([N+](=O)[O-])c2nsnc12)C(N)=O` [sC18-SNBD] (H-GLRKRLRKFRNKIKEKC(X1)-NH2), the EC50 in data set [1] (setting [6]) is 43 ± 3 µM.
Consider `CC[C@H](C)[C@H](NC(=O)[C@H](CCCCN)NC(=O)[C@@H](NC(=O)[C@H](CCC(N)=O)NC(=O)[C@@H](N)CCCNC(=N)N)[C@@H](C)CC)C(=O)N[C@@H](Cc1c[nH]c2ccccc12)C(=O)N[C@@H](Cc1ccccc1)C(=O)N[C@@H](CCC(N)=O)C(=O)N[C@@H](CC(N)=O)C(=O)N[C@@H](CCCNC(=N)N)C(=O)N[C@@H](CCCNC(=N)N)C(=O)N[C@@H](CCSC)C(=O)N[C@@H](CCCCN)C(=O)N[C@@H](Cc1c[nH]c2ccccc12)C(=O)N[C@@H](CCCCN)C(=O)N[C@@H](CCCCN)C(N)=O` [penetratin, reference compound], for which the EC50 in data set [1] (setting [5]) amounted to 34 ± 5 µM.
In the case of `CC(C)C[C@H](NC(=O)[C@H](Cc1ccc(O)cc1)NC(=O)[C@H](CCCNC(=N)N)NC(=O)[C@H](CO)NC(=O)[C@H](CSc1ccc([N+](=O)[O-])c2nsnc12)NC(=O)[C@H](C)NC(=O)[C@H](Cc1ccc(O)cc1)NC(=O)[C@H](CC(C)C)NC(=O)[C@@H](N)CCCCN)C(N)=O` [P1-SNBD] (H-KLYAC(X1)SRYL-NH2), the “Peptide stability, percentage relative to peptide without bioanalyte” value in data set [2] (1 mM NADH, 3 h) is recorded as > 95%; in data set [2] (1 mM NADH, 24 h), > 95%; in data set [2] (1 mM NADH, 48 h) it was > 95%; in data set [2] (5 mM glutathione, 3 h), > 95%; in data set [2] (5 mM glutathione, 24 h) it was > 95%; in data set [2] (5 mM glutathione, 48 h) it was > 95%. Besides, the chemical stability result in data set [3] (cell culture media at 37 °C) is given as “no major degradation”; in data set [3] (different biologically relevant reducing environments), “no major degradation”; in data set [3] (phosphate buffered saline (PBS, pH 7.0) at 25 °C), “no major degradation”.
In turn, `CC[C@H](C)[C@H](NC(=O)[C@H](CCCCN)NC(=O)[C@@H](NC(=O)[C@H](CCC(N)=O)NC(=O)[C@@H](N)CCCNC(=N)N)[C@@H](C)CC)C(=O)N[C@@H](Cc1c[nH]c2ccccc12)C(=O)N[C@@H](Cc1ccccc1)C(=O)N[C@@H](CCC(N)=O)C(=O)N[C@@H](CC(N)=O)C(=O)N[C@@H](CCCNC(=N)N)C(=O)N[C@@H](CCCNC(=N)N)C(=O)N[C@@H](CCSC)C(=O)N[C@@H](CCCCN)C(=O)N[C@@H](Cc1c[nH]c2ccccc12)C(=O)N[C@@H](CCCCN)C(=O)N[C@@H](CCCCN)C(=O)N[C@@H](CSc1ccc([N+](=O)[O-])c2nsnc12)C(N)=O` [penetratin-SNBD] registered an EC50 in data set [1] (setting [6]) of 27 ± 3 µM.
In the case of `N=C(N)NCCC[C@H](NC(=O)CNC(=O)[C@@H](N)Cc1ccc(O)cc1)C(=O)N[C@@H](CCCCN)C(=O)N[C@@H](CCCCN)C(=O)N[C@@H](CCCNC(=N)N)C(=O)N[C@@H](CCCNC(=N)N)C(=O)N[C@@H](CCC(N)=O)C(=O)N[C@@H](CCCNC(=N)N)C(=O)N[C@@H](CCCNC(=N)N)C(=O)N[C@@H](CCCNC(=N)N)C(=O)N1CCC[C@H]1C(=O)N[C@@H](CCC(N)=O)C(N)=O` [TAT, reference compound], the EC50 in data set [1] (setting [5]) stood at 79 ± 6 µM.
Turning to “mCCL2-SNBD: mCCL2 labeled with SNBD at the C-terminal Cys, 9063.6 Da”, the “internalization in presence of CCR2 antagonist” value in data set [4] (RS102895 40 μM pre-incubated 15 min) is recorded as “substantially reduced intracellular fluorescence emission”. Moreover, the “internalization in live macrophages” value in data set [4] (no washing steps) is reported as “bright fluorescence signals distributed across the cytosol”.
